Patent EP0051819A2, “Tetra-substituted benzene derivatives, their preparation and pharmaceutical preparations containing them” (F. HOFFMANN-LA ROCHE & CO. Aktiengesellschaft, priority 1980, dated 1982)
Converted amounts (≈) assume the structure as drawn.

Key:
Type in all cases: cell-based
Rhinovirus HGP = assay: Antiviral activity: inhibition of viral cytopathogenic effect (C.P.E.) in HeLa cell culture; settings: for IC50: Enterovirus, HeLa, 48 h, concentration inhibiting C.P.E. by 50% versus control culture, HeLa cells, 2 days at 33°C, read-out: IC50; for antivirale Aktivität: qualitative statement in the description, no virus named
Description: (§1) Eine Suspension von HeLa-Zellen (6 x 10^4) wurde mit Rhinovirus HGP (3 x 10^3 Plaque-bildende Einheiten, PFU) gemischt und auf eine Mikrotestplatte gebracht, die die zu testenden Verbindungen in zunehmender Verdünnung enthielten. Die Zellen wurden dann in Eagle's Minimalnährlösung, die 2% Kalbsserum, 1% Tryptosephosphatbrühe, 100 ug/ml Streptomycin und 20 Einheiten/ml Penicillin G enthielt, kultiviert. Der virale zytopathogenische Effekt (C.P.E.) und die Cytotoxizität wurden mikroskopisch nach 2 Tagen Kultivierung bei 33°C beobachtet. Die antivirale Aktivität (IC50) der Testverbindungen ist diejenige Konzentration,.bei der C.P.E. um 50% gegenüber der Kontrollkultur gehemmt war. Die Cytotoxizität ist als Minimalkonzentration angegeben, bei der toxische Symptome beobachtet wurden.(cytotoxische Dosis).

[1] = Cytotoxicity in HeLa cells, observed microscopically in the antiviral test; settings: human, hela cells; minimal concentration at which toxic symptoms were observed (cytotoxische Dosis); 2 days at 33°C; read-out: Cytotoxizität
Description: as §1

Rhinovirus 14 = assay: Antiviral spectrum against rhinovirus serotypes (C.P.E. inhibition); settings: Enterovirus; virus strain Rhinovirus 14
Description: as §1
(§2) Weiterhin sind die antiviralen Spektren von 1-(4-Ethoxy-2-hydroxy-6-methoxyphenyl)-3-(4-methoxyphenyl)-1-propanon (Verbindung A) und 4-Ethoxy-2-hydroxy-6-methoxy-N-(p-methoxybenzyl)benzamid (Verbindung B) gegen verschiedene Serotypen von Rhinoviren in Tabelle 2. angegeben.

Rhinovirus 1A = assay: as above; settings: Enterovirus; virus strain Rhinovirus 1A
Description: as §1, §2

Rhinovirus 1B = assay: as above; settings: Enterovirus; virus strain Rhinovirus 1B
Description: as §1, §2

Rhinovirus 21 = assay: as above; settings: Enterovirus; virus strain Rhinovirus 21
Description: as §1, §2

Rhinovirus 23 = assay: as above; settings: Enterovirus; virus strain Rhinovirus 23
Description: as §1, §2

Rhinovirus 24 = assay: as above; settings: Enterovirus; virus strain Rhinovirus 24
Description: as §1, §2

Rhinovirus 25 = assay: as above; settings: Enterovirus; virus strain Rhinovirus 25
Description: as §1, §2

Rhinovirus 2 = assay: as above; settings: Enterovirus; virus strain Rhinovirus 2
Description: as §1, §2

Rhinovirus 31 = assay: as above; settings: Enterovirus; virus strain Rhinovirus 31
Description: as §1, §2

Rhinovirus 39 = assay: as above; settings: Enterovirus; virus strain Rhinovirus 39
Description: as §1, §2

Rhinovirus 46 = assay: as above; settings: Enterovirus; virus strain Rhinovirus 46
Description: as §1, §2

Rhinovirus 50 = assay: as above; settings: Enterovirus; virus strain Rhinovirus 50
Description: as §1, §2

Rhinovirus 9 = assay: as above; settings: Enterovirus; virus strain Rhinovirus 9
Description: as §1, §2

[2] = Cytotoxic dose inhibiting HeLa cell growth; settings: human, hela cells; footnote of Tabelle 2; read-out: cytotoxischen Dosen, die HeLa-Zellwachstum hemmen
Rhinovirus 16 = assay: Antiviral spectrum against rhinovirus serotypes (C.P.E. inhibition); settings: Enterovirus; virus strain Rhinovirus 16
Description: as §1, §2

Rhinovirus 30 = assay: as above; settings: Enterovirus; virus strain Rhinovirus 30
Description: as §1, §2

Rhinovirus 32 = assay: as above; settings: Enterovirus; virus strain Rhinovirus 32
Description: as §1, §2

Rhinovirus 36 = assay: as above; settings: Enterovirus; virus strain Rhinovirus 36
Description: as §1, §2

Rhinovirus 44 = assay: as above; settings: Enterovirus; virus strain Rhinovirus 44
Description: as §1, §2

Rhinovirus 47 = assay: as above; settings: Enterovirus; virus strain Rhinovirus 47
Description: as §1, §2

Rhinovirus 55 = assay: as above; settings: Enterovirus; virus strain Rhinovirus 55
Description: as §1, §2

Row | SMILES | IC50 (Rhinovirus HGP) [ng/mL] | antivirale Aktivität (Rhinovirus HGP) | MCC at 48 h [1] [µg/mL] | IC50 (Rhinovirus 14) [ng/mL] | IC50 (Rhinovirus 1A) [ng/mL] | IC50 (Rhinovirus 1B) [ng/mL] | IC50 (Rhinovirus 21) [ng/mL] | IC50 (Rhinovirus 2) [ng/mL] | IC50 (Rhinovirus 31) [ng/mL] | IC50 (Rhinovirus 39) [ng/mL] | IC50 (Rhinovirus 50) [ng/mL] | IC50 (Rhinovirus 9) [ng/mL] | MCC [2] [µg/mL] | other results
1 | CCOc1cc(O)c(C(=O)CCc2ccc(OC)cc2)c(OC)c1 [1-(4-Ethoxy-2-hydroxy-6-methoxyphenyl)-3-(4-methoxyphenyl)-1-propanon] | 2 (≈ 0.00605 µM) | besonders starke antivirale Aktivität | > 8 | 100 to 300 (≈ 0.303 to 0.908 µM) | 30 to 90 (≈ 0.0908 to 0.272 µM) | 30 to 90 (≈ 0.0908 to 0.272 µM) | < 1 | 1 (≈ 0.00303 µM) | 30 to 90 (≈ 0.0908 to 0.272 µM) | 12 to 37 (≈ 0.0363 to 0.112 µM) | 4 to 12 (≈ 0.0121 to 0.0363 µM) | 12 to 37 (≈ 0.0363 to 0.112 µM) | 60 | IC50 (Rhinovirus 23): 4 ng/mL (≈ 0.0121 µM); IC50 (Rhinovirus 24): 10 to 30 ng/mL (≈ 0.0303 to 0.0908 µM); IC50 (Rhinovirus 25): 10 to 90 ng/mL (≈ 0.0303 to 0.272 µM); IC50 (Rhinovirus 46): 37 to 110 ng/mL (≈ 0.112 to 0.333 µM)
2 | CCOc1cc(O)c(C(=O)NCc2ccc(OC)cc2)c(OC)c1 [4-Ethoxy-2-hydroxy-6-methoxy-N-(p-methoxybenzyl)benzamid] | 2 (≈ 0.00604 µM) | besonders starke antivirale Aktivität | > 10 | 9 to 27 (≈ 0.0272 to 0.0815 µM) | 9 to 27 (≈ 0.0272 to 0.0815 µM) | 3 to 9 (≈ 0.00905 to 0.0272 µM) | < 1 | 1 (≈ 0.00302 µM) | 81 to 240 (≈ 0.244 to 0.724 µM) | 3 (≈ 0.00905 µM) | 10 (≈ 0.0302 µM) | 3 (≈ 0.00905 µM) | 40 | IC50 (Rhinovirus 16): 3 ng/mL (≈ 0.00905 µM); IC50 (Rhinovirus 30): 1 to 3 ng/mL (≈ 0.00302 to 0.00905 µM); IC50 (Rhinovirus 32): 3 to 9 ng/mL (≈ 0.00905 to 0.0272 µM); IC50 (Rhinovirus 36): 9 to 27 ng/mL (≈ 0.0272 to 0.0815 µM); IC50 (Rhinovirus 44): 3 ng/mL (≈ 0.00905 µM); IC50 (Rhinovirus 47): 3 ng/mL (≈ 0.00905 µM); IC50 (Rhinovirus 55): 9 ng/mL (≈ 0.0272 µM)
